Assay results taken from US10179770B2, “Quinolines derivatives as novel anticancer agents” (GENOSCIENCE PHARMA, priority 2013, dated 2019).

Assays:
[1] = test system: A375 cell line; assay: Combination of XIX-3 and Zelboraf, Bliss independence model; type: cell-based, human; details: XIX-3 associated with Zelboraf, 72 h
Description: The human melanoma cell lines A375 cultured in Dulbecco's modified Eagle's medium supplemented with 10% Fetal Bovine Serum and 1% Penicillin-Streptomycin and maintained at 37° C. with 5% CO2.
A375 cells were plated at 800 cells per well onto 96-well plates in 90 μL of media per well and were allowed to grow overnight before the assay. XIX-3 and Zelboraf, a compound used for treatment for BRAF V600E mutation-positive metastatic melanoma, were added at different concentrations (combinations of five concentrations of XIX-3 and six concentrations of Zelboraf) to each well, and cell cultures were incubated for 72 h. Vehicle (H2O) was used as a control, and all compounds were tested in a constant percentage of vehicle. Cell outgrowth was measured using a […] Aqueous One Solution Cell Proliferation Assay (Promega) and a TECAN Sunrise plate reader. […] The effects of drug-drug combinations are evaluated in the Bliss independence model (Prichard M. N. and Shipman C. Jr. Antivir. Res. 1990 (14) 181-205; Prichard, M. L. et al. Antimicrob Agents Chemother 1993 (37) 540-545). The theoretical additive effect is calculated from the dose-response curves of individual compounds by the equation: Z=X+Y(1−X) (7) Where: • Z represents the total inhibition produced by the combination of drugs X and Y. • X and Y represent the inhibition produced by drugs X and Y alone, respectively. […]

[2] = test system: MOLM-14 cell line; assay: Combination of XXIV-3 and Cytarabine, Bliss independence model; type: cell-based, human; details: XXIV-3 associated with Cytarabine, 72 h
Description: The human leukemia cell line MOLM-14 was cultured in Minimum Essential Medium Alpha Medium (MEM) supplemented with 10% Fetal Bovine Serum (FBS) and 1% Penicillin-Streptomycin and maintained at 37° C. with 5% CO2. 30,000 cells in 180 μL of MEM 5% FBS 1% P/S were plated onto 96-well plates immediately before the assay. Compounds were added at different concentrations (combinations of five concentrations of XXIV-3 and six concentrations of Cytarabine) to each well, and cell cultures were incubated for 72 h. Vehicle (H2O) was used as a control, and all compounds were tested in a constant percentage of vehicle. Cell outgrowth was measured using the CellTiter-Glo luminescent cell viability assay as described by the manufacturer (Promega, Ref G7571 Madison, Wis., USA) using an Infinite F200 Pro TECAN plate reader. […]
The effects of drug-drug combinations are evaluated in the Bliss independence model (Prichard M. N. and Shipman C. Jr. Antivir. Res. 1990 (14) 181-205; Prichard, M. L. et al. Antimicrob Agents Chemother 1993(37) 540-545). The theoretical additive effect is calculated from the dose-response curves of individual compounds by the equation: Z=X+Y(1−X) (7) Where: • Z represents the total inhibition produced by the combination of drugs X and Y. • X and Y represent the inhibition produced by drugs X and Y alone, respectively. […]

Compound	Combination effect on cell viability (Bliss independence model) [1]	Combination effect on cell viability (Bliss independence model) [2]
CCN(CC)C1CCN(C(C)c2cc(-c3ccccc3)nc3ccccc23)CC1.Cl.Cl (centres unmarked) [XIX-3, 2-phenyl-4-{1-[4-(N,N-diethylamino)piperidin-1-yl]-eth-1-yl}quinoline dihydrochloride]	additive effect (between −20% to +20% indicates additive effect)	–
CCN(CC)C1CCN(C(C)c2cc(-c3ccc4ccccc4c3)nc3ccccc23)CC1.Cl.Cl (centres unmarked) [XXIV-3, 2-(2-naphtyl)-4-{1-[4-(N,N-diethylamino)-piperidin-1-yl]-eth-1-yl}quinoline dihydrochloride]	–	additive effect (between −20% to +20% indicates additive effect)
